Source: patent publication US20240058298A1, “GENISTEIN FOR USE IN THE TREATMENT OF FOCAL SEGMENTAL GLOMERULOSCLEROSIS (FSGS)” (Delta 4 GmbH, priority 2020, published 2024)

Tested on: adriamycin induced nephropathy (FSGS model)
Assay: Adriamycin induced nephropathy mouse model of FSGS, proteinuria (UPCR, UACR) in spot urine
Type: in vivo, Female Balb/c mice
Details: for urinary protein to creatinine ratio (UPCR): Balb/c mice, adriamycin 10.5 mg/kg i.v., chow + genistein 500 mg/kg (about 80 mg/kg mouse/day) from day 2, weekly spot urine, vs control chow
Method: For biological testing of genistein, the accepted mouse models of FSGS, was chosen, i.e. the adriamycin induced nephropathy. […] All animal experiments and handling were in accordance with the Austrian law for protection of animals and approved by the animal ethics committee of the Austrian ministry for science and research.
Adriamycin (Doxorubicin; Sigma, D1515-10 mg) was diluted in ddH2O. To induce FSGS, a dose of 10.5 mg/kg mouse was injected i.v. into the tail vein using 27G needles, i.e. a total volume of 200 μl volume per 25 g mouse.
For tail vein injection, mice were anaesthetized using Ketanest (Pfizer, 25 mg/ml vials) and Rompun (Bayer, 20 mg/ml injection solution). A final mix of 12.5 mg/ml Ketanest and 0.25% Rompun in 0.9% NaCl solution was prepared and 200 μl/25 g mouse were injected. Genistein (Selleckchem, S1342) was used for therapy experiments.
Female Balb/c mice were obtained from the animal breeding facility of the Medical University (Abteilung kw Labortierkunde, Himberg, Austria). 8-18 weeks old animals with a weight >17g were used for the experiments and adjusted for weight and age. Animals were allowed acclimatization of at least 7 days. Animal were marked by ear or toe clip codes to allow identification. Adriamycin nephropathy in Balb/c mice is the most commonly used animal model for preclinical FSGS studies and shares the central features with human FSGS.
Standard commercial chow from ssniff (ssniff Spezialdiäten GmbH, Soest, Germany) contained crude protein (19%), crude fat (3.3%), crude fiber (4.9%), crude ash (6.4%), starch (36.5%), sugar (4.7%). Control group animals were fed standard chow, test group animals standard chow+genistein (500 mg/kg) produced by ssniff. All animals were allowed to eat ad libitum assuming a daily average uptake of about 4 grams/mouse (according to animal care guideline of the Johns Hopkins University, Baltimore, MD, USA; http://web.jhu.edu/animalcare/ procedures/mouse.html), i.e. about 80 mg genistein/kg mouse/day (Odle et al. 2017).
Spot urine was collected every week and Creatinine and protein levels were measured in the Clinical Institute for Laboratory Medicine of the Medical University Vienna.
Urinary albumin was measured by ELISA. 96-well plates were coated over night at 4° C. with 100 μl antibody solution Anti Mouse Serum Albumin antibody (Abcam ab34807, Lot GR3242102-4; diluted 1:2,000) in coating buffer (3.7g NaHCO3; 0.64 g Na2CO3; 1L distilled water). The remaining procedure was performed at room temperature. Wells were washed 3× with HBSS (Sigma H8264-500ML) +0,05% Tween-20 (Bio-Rad, #1706531) and blocked in ELISA/ELISPOT Diluent (eBioscience, 00-4202-56) and washed again for 3×. Samples and standard curve were both diluted in ELISA/ELISPOT diluent were incubated for 2 h, followed by 3 wash steps with HBSS+0.05% Tween-20, incubated with HRP antibody Anti Mouse Serum Albumin antibody (Abcam ab19195, Lot GR3242102-4; diluted 1:100,000) for 1 h, followed by 5 was steps. Reaction was developed with TMB One Solution (Promega, G7431) and stopped with 2N H2SO4. Standard curves were generated with Mouse Albumin (Merck/Sigma, 126674-25MG). 450nm absorbance was measured on an Epoch Microplate reader (BioTek) using Gen5 1.10 software.
R version 4.0.2 was used for statistical analysis. Student's t-test was used for comparing UPCR and UACR values between samples from treated and control mice for each individual time point and to assess differences in histological parameters. […]

O=c1c(-c2ccc(O)cc2)coc2cc(O)cc(O)c12 [Genistein, 5,7-Dihydroxy-3-(4-hydroxyphenyl)chromen-4-one]
urinary protein to creatinine ratio (UPCR): marked amelioration
urinary protein to creatinine ratio (UPCR) (listed as compound of the present invention): significantly lowered
Proteinuria (adriamycin FSGS mice, genistein chow vs control): Significantly Reduces
impact of genistein treatment over time on outcome determined based on UPCR levels (repeated measures ANOVA) (adriamycin FSGS mice, genistein chow vs control, all collected urines (FIG. 1)): significant beneficial impact
urine albumin/creatinine ratio (UACR) (animal studies, urinary albumin by ELISA, genistein vs control): significantly lowered
